Test results as given in patent publication US20180312473A1, “PHENAZINE DERIVATIVES AS ANTIMICROBIAL AGENTS” (priority 2015, published 2018).
≈ marks a conversion by molar mass, not a printed value. Where two headings read alike, the source gives them in different places.

Legend:
[1] = tested on: MRSA-2 (methicillin-resistant Staphylococcus aureus clinical isolate); assay: MIC assay (broth microdilution, CLSI); assay type: cell-based; conditions: Staphylococcus aureus, MRSA, Table 7; a midpoint of 2-fold range; b lowest concentration tested; read-out: MIC, MRSA-2
[2] = tested on: Enterococcus faecium (ATCC 700221), VRE; assay: MIC assay (broth microdilution, CLSI); assay type: cell-based; conditions: Table 7; b lowest concentration tested; read-out: MIC, VRE 700221
[3] = tested on: Staphylococcus epidermidis (ATCC 12228); assay: MIC assay (broth microdilution, CLSI); assay type: cell-based; conditions: Staphylococcus epidermidis, ATCC12228; Table 7; b lowest concentration tested; read-out: MIC, S. epidermidis 12228
[4] = tested on: MRSE (S. epidermidis ATCC 35984) planktonic cells and biofilms; assay: Calgary Biofilm Device (CBD) assay, MBC/MBEC; assay type: cell-based, Staphylococcus epidermidis; conditions: Table 8; for MBC: Staphylococcus epidermidis, read-out: MRSE 35984 MBC
human red blood cells = assay: Hemolysis assay with red blood cells; conditions: human, 1 h, 200 μM, pH 7.2
Protocol: The hemolysis activities of select compounds of the invention were determined. […] The washing was repeated three times with the buffer. In 96-well plate, test compounds were added to the buffer from DMSO stocks. […] The plate was then incubated for 1 hour at 37° C. After incubation, the plate was centrifuged for 5 minutes at 3,500 rpm. Then 80 μL of the supernatant was transferred to another 96-well plate, and the optical density (OD) was read at 405 nm. DMSO served as the negative control (0% hemolysis), while Triton X served as the positive control (100% hemolysis). The percent of hemolysis was calculated as (OD405 of the compound−OD405 of DMSO)/(OD405 of Triton X−OD405 of the buffer).
The washing was repeated three times with the buffer. In 96-well plate, test compounds were added to the buffer from DMSO stocks. […] The plate was then incubated for 1 hour at 37° C. After incubation, the plate was centrifuged for 5 minutes at 3,500 rpm. Then 80 μL of the supernatant was transferred to another 96-well plate and the optical density (OD) was read at 405 nm. DMSO served as our negative control (0% hemolysis) while Triton X served as our positive control (100% hemolysis). The percent of hemolysis was calculated as (OD405 of the test compound−OD405 DMSO)/(OD405 Triton X−OD405 buffer) from three independent experiments.

[5] = tested on: VRE (E. faecium ATCC 700221) planktonic cells and biofilms; assay: Calgary Biofilm Device (CBD) assay, MBC/MBEC; assay type: cell-based, Enterococcus faecium; conditions: Enterococcus; Table 8; c lowest concentration tested; read-out: VRE 700221 MBC
[6] = tested on: MRSA-2 planktonic cells and biofilms; assay: Calgary Biofilm Device (CBD) assay, MBC/MBEC; assay type: cell-based, Staphylococcus aureus; conditions: Staphylococcus aureus, MRSA
[7] = tested on: M. tuberculosis H37Ra (ATCC 25177); assay: Mycobacterium tuberculosis MIC assay; assay type: cell-based; conditions: Mycobacterium tuberculosis
Protocol: (§1) The culture was then diluted with fresh medium until an OD600 of 0.01 was reached. […] The final DMSO concentration was maintained at 0.5%. […] Three rows were reserved for each compound. […] OD600 absorbance was recorded using SPECTRAMAX M5 (Molecular Devices). Data obtained from three independent experiments were analyzed using Excel.
as §1, with “EXCEL.” for “Excel.”

MRSA-2 = assay: MIC assay with Tiron or metal(II) cation co-treatment; assay type: cell-based, Staphylococcus aureus; conditions: for MIC: Staphylococcus aureus
[8] = MRSA-2, + loss, − increase of activity

## C=CCc1cc(Br)c2nc3ccccc3nc2c1O [Compound 23, 2-Allyl-4-bromo-1-hydroxyphenazine]
[1]
  MIC: > 100 µM
[2]
  MIC: > 100 µM
[3]
  MIC: > 100 µM

## O=C(O)CN(CCN(CC(=O)O)CC(=O)O)CC(=O)O [EDTA, ethylenediaminetetraacetic acid, reference compound]
[4]
  MBC: 1000 µM (≈ 292 µg/mL)
  MRSE 35984 MBEC: > 2000 µM
Human red blood cells
  % Hemolysis at 200 μM: 3.0%

## CC(=O)N[C@@H](CS)C(=O)O [NAC, N-acetyl cysteine, reference compound]
[4]
  MBC: > 2000 µM
[5]
  MBC: > 2000 µM
[6]; Table 4, read-out: MBC, MRSA-2
  MBC: > 2000 µM
[6]; Table 8, a/b 2-/4-fold range in independent experiments, read-out: MRSA-2 MBC
  MBC: > 2000 µM

## CO[C@H]1/C=C/O[C@@]2(C)Oc3c(C)c(O)c4c(O)c(c(/C=N/N5CCN(C)CC5)c(O)c4c3C2=O)NC(=O)/C(C)=C\C=C\[C@H](C)[C@H](O)[C@@H](C)[C@@H](O)[C@@H](C)[C@H](OC(C)=O)[C@@H]1C [Rifampin, rifampin, reference compound]
[3]
  MIC: 0.1 µM (≈ 0.0823 µg/mL)
Human red blood cells
  % Hemolysis (200 μM): 8.0%

## [H]/N=C(/N)N[C@H]1[C@H](O)[C@@H](O)[C@H](O[C@@H]2O[C@@H](C)[C@](O)(C=O)[C@H]2O[C@@H]2O[C@@H](CO)[C@H](O)[C@@H](O)[C@@H]2NC)[C@@H](N/C(N)=N\[H])[C@@H]1O [Streptomycin, streptomycin, reference compound]
[7]; 168 h, read-out: Mtb MIC
  MIC: 1.32 µM (≈ 0.768 µg/mL)
[7]; Table 7, read-out: MIC, M. tuberculosis H37Ra
  MIC: 1.32 µM (≈ 0.768 µg/mL)

## CN(C)[C@@H]1C(O)=C(C(N)=O)C(=O)[C@@]2(O)C(O)=C3C(=O)c4c(O)cccc4[C@@](C)(O)[C@H]3C[C@@H]12 [Tetracyc., tetracycline, reference compound]
MRSA-2; [8]
  Fold Δ (Cu^2+): n.a. (insignificant changes in MIC values (<2-fold changes))
  Fold Δ (Fe^2+): +16
MRSA-2; MRSA-2, 200 μM copper(II), read-out: MIC with Cu^2+
  MIC: 1.56 µM
MRSA-2; MRSA-2, 200 μM iron(II), read-out: MIC with Fe^2+
  MIC: 18.8 µM
MRSA-2; MRSA-2, no additive (Table 9), read-out: MIC
  MIC: 1.17 µM
